The term Kd denotes the equilibrium constant for the complex coming apart. As usually defined, the IC50 is the midpoint of a concentration-inhibition curve. High values mean weaker potency, low ones greater potency.

We go through three molecules from US8476081B2, “Assay for evaluating affinity and specificity of ligand-albumin binding” (Janssen Pharmaceutica NV, priority 2009, dated 2013).

Read-outs that look alike come from different tables or passages of the source. Some results are limits rather than exact numbers.

For series [1], the target named is Human Serum Albumin (HSA) (Homo sapiens, UniProt P02768). The series can be described thus: ThermoFluor thermal shift assay with human serum albumin. As to conditions: for Type of HSA Binding Interaction: classified from KD versus IC50 and % displacement of 1,8-ANS. Here is the method: (§1) 1× reaction mixture of about 50 μg/mL human serum albumin, about 4 μM 1,8-ANS, about 150 mM NaCl, about 25 mM PIPES, pH 7.2, and about 0.002% Tween®-20 was prepared.
(§2) To prevent evaporation, about 1 μL of silicone oil was added to the plate using multichannel pipettors.
The plates were loaded onto a ThermoFluor® device and heated from about 25° C. to about 95° C. at a ramp-rate of about 1° C. per minute. Fluorescence was measured by continuous illumination with UV light (Hamamatsu LC6) via fiber optic and filtered through a band-pass filter of about 390±10 nm; >6 OD cutoff. Fluorescence emissions were detected by measuring light intensity using a CCD camera (Sensys, Roper Scientific) filtered to detect about 500±25 nm; >6 OD cutoff. This allows for the entire plate to be simultaneously monitored and each sample to be independently monitored. One or more images were collected at an interval of every about 0.5° C. to about 1° C. The sum of the pixel intensity at a given area of the plate was recorded vs. temperature.
(§3) The values of Tm, ΔH, yF,Tm, mF, yU,Tm and mU were calculated for each sample according to Equation 9. Further, the value of Tm over the compound concentration was used to calculate the binding constant (KD) using Equation 10b. A shift in the denaturation curve of albumin indicates whether the compound binds to albumin, and the value of KD indicates the binding strength of compounds to albumin. A shift of the fluorescence signal indicates the specificity of compounds to albumin, and the value of IC50 indicates the binding strength to the site I (Equation 11).
(§4) The compounds and 1× reaction mixture were dispensed and measured for the fluorescence value using the plate-based reader Tecan® Safire II. Then the plate was heated in a ThermoFluor® system and measured for fluorescence value and the thermal shift value. The fluorescence values were measured twice by both plate reader and ThermoFluor®. The fluorescence value obtained from ThermoFluor® was used for qualitative assessment whereas those from the plate reader was used for quantitative assessment. The value of IC50 was determined by the fluorescence obtained from the plate reader and was fit using Equation 11 described above. The value of KD was determined by the readings from ThermoFluor® and was fit using Equation 10b described above.

Series [2] deals with Human Serum Albumin (HSA) site I (Homo sapiens, UniProt P02768). Kind of series: 1,8-ANS site-specific probe displacement (fluorescence) from HSA site I. As to conditions: for % Displacement: percent displacement of the site-specific probe 1,8-ANS at the second highest concentration of test ligand.
From the text: In addition to the thermal shift assay, the assay test plate may be utilized in a separate fluorescence measurement using a plate-based reader that is compatible with any relevant wavelengths. The preferred plate-based reader is Tecan Satire II. The displacement of site-specific probe such as 1,8-ANS from albumin site 1 by test ligand may cause a decrease in observed fluorescence that may be fit to Equation 11 to determine the value of IC50.
Additionally, the percent displacement may be determined by (y−yhigh), divided by the difference of low (y0) and high endpoints (yhigh), wherein y is determined at the second highest concentration.
as §1, §2, §3, §4

The target in series [3] is T1, Bovine Serum Albumin (BSA) (Bos taurus, UniProt P02769).
T1 construct: The above albumins were prepared using method IV of Cohn et al. (J. Am. Chem. Soc. 69: 1753-1761, 1947) and purified with 1× crystallization; purchased Sigma A-7638
The series can be described thus: ThermoFluor thermal shift assay with bovine serum albumin. The note with it: Example 4, Table 3. Format: binding. The source says:
(§5) To evaluate the bioavailability of a compound in various species, the compound's affinity and specificity to albumins from human, bovine, rat, and mouse were examined. […] The resulting 1× reaction mixture comprising human serum albumin, bovine serum albumin, rat serum albumin, or mouse serum albumin was used with a panel of compounds in the binding assay.
On the technique in general: Differential scanning fluorimetry follows unfolding on heating by fluorescence.

In series [4] the target is T2, Rat Serum Albumin (Rattus norvegicus, UniProt P02770).
T2 construct: The above albumins were prepared using method IV of Cohn et al. (J. Am. Chem. Soc. 69: 1753-1761, 1947) and purified with 1× crystallization; purchased Sigma A-6414
Kind of series: ThermoFluor thermal shift assay with rat serum albumin. Format: binding. As to conditions: Example 4, Table 3.
From the text: as §5

Series [5] concerns the target T3, Mouse Serum Albumin (Mus musculus, UniProt P07724).
T3 construct: The above albumins were prepared using method IV of Cohn et al. (J. Am. Chem. Soc. 69: 1753-1761, 1947) and purified with 1× crystallization; purchased Sigma A-3559
Kind of series: ThermoFluor thermal shift assay with mouse serum albumin. Format: binding. As to conditions: Example 4, Table 3.
From the text: as §5

The target of series [6] is HSA (Homo sapiens, UniProt P02768). The note with it: binding site on HSA from previous reports; cited from earlier work.
The mark [7] stands for this setting: Human Albumin (KD), Example 4, Table 3.

T3 sequence (P07724 25-608): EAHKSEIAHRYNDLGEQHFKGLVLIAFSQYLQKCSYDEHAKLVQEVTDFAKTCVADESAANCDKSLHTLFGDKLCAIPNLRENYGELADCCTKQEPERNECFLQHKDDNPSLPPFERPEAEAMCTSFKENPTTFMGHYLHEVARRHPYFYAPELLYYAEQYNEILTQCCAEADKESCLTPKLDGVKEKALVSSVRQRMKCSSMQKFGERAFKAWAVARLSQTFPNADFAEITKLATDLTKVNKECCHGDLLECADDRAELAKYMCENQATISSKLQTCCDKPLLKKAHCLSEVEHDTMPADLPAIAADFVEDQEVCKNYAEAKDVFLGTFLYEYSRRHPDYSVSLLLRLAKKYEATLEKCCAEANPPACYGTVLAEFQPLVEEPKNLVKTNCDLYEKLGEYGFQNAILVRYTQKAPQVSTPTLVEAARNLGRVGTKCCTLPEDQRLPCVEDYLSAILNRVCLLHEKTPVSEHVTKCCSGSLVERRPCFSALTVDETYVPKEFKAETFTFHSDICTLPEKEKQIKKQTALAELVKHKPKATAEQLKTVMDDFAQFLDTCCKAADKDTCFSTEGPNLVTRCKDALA
Human Serum Albumin (HSA), sequence (P02768 25-609): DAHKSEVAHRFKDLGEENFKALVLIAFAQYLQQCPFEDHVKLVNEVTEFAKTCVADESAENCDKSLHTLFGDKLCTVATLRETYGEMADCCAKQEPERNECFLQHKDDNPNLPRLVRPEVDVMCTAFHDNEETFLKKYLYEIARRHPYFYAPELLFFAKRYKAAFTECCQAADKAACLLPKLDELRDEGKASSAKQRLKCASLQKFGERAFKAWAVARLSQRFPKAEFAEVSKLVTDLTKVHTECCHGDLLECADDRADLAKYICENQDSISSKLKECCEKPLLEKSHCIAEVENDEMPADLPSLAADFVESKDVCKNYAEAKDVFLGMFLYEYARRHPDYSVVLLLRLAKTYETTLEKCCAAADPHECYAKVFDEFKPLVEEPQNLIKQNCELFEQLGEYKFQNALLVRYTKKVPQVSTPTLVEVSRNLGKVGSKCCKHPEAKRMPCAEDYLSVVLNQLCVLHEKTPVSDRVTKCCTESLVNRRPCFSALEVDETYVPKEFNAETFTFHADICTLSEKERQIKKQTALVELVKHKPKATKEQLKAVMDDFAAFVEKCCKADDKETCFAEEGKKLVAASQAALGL
Human Serum Albumin (HSA) site I, sequence (P02768 25-609): as above
HSA, sequence (P02768 25-609): as above
T2 sequence (P02770 25-608): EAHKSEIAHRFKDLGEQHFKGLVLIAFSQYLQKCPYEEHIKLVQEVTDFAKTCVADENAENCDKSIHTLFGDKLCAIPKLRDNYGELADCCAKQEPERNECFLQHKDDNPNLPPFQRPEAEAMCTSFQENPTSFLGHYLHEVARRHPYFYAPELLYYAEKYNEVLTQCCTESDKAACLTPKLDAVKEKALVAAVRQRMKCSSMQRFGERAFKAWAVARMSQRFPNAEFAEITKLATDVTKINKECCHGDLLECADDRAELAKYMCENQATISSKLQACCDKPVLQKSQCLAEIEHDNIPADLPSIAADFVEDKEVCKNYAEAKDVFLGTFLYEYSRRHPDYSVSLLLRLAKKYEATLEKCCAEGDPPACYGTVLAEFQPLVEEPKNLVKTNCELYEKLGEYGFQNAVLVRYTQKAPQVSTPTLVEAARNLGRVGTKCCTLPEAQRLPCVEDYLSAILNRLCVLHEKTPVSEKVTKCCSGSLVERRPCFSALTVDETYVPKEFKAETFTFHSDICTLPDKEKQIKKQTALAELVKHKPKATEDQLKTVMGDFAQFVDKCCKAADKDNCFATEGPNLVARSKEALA
T1 sequence (P02769 25-607): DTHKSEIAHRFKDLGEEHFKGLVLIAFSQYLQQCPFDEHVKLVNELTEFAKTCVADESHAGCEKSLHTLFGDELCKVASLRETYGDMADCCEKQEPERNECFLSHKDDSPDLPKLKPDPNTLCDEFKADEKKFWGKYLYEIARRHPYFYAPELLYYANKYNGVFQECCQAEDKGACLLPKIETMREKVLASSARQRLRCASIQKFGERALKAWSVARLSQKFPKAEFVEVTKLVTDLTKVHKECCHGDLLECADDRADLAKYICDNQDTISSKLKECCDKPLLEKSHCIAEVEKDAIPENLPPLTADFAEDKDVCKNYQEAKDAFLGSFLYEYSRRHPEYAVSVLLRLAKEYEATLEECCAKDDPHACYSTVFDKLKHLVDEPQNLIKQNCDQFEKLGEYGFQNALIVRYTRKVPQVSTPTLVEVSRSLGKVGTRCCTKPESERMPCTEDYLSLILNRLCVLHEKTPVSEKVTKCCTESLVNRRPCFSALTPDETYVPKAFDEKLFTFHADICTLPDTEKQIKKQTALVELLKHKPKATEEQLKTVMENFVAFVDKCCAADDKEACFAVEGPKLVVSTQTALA

`CCC(Cc1c(I)cc(I)c(O)c1I)C(=O)O` (centres unmarked) [Iophenoxate, iophenoxate]: the equilibrium dissociation constant (Kd) in series [1] was determined as 0.044 µM; in series [3], 0.066 µM; in series [4], 0.048 µM; in series [5] it was 0.05 µM. In series [1], the “Type of HSA Binding Interaction” value is on record as “Type 1”. The molecule further returned an IC50 in series [2] of 0.711 µM. Further, in series [2], the “% Displacement” value is on record as “(129) %”. Also, the “Reported Binding Site” value in series [6] was “Site 1”.
Take `COc1cc(NS(=O)(=O)c2ccc(N)cc2)nc(OC)n1` [Sulfadimethoxine, sulfadimethoxine]: the Kd was greater than 62.5 µM in series [1] (setting [7]), greater than 62.5 µM in series [3], 9.4 µM in series [4] and 69.5 µM in series [5]. The “Type of HSA Binding Interaction” value in series [1] was “Type 1”. In series [2], this molecule displayed an IC50 of 96 µM. In series [2], the “% Displacement” value is given as “(71) %”. Also, the “Reported Binding Site” value in series [6] is listed as “Site 1”.
For `Nc1ccc(S(=O)(=O)Nc2nccs2)cc1` [Sulfathiazole, sulfathiazole], the Kd in series [1] (setting [7]), in series [3], in series [4] and in series [5] was greater than 62.5 µM in each case. Moreover, the “Type of HSA Binding Interaction” value in series [1] is given as “Type 4”. The “% Displacement” value in series [2] is “(40) %”. The “Reported Binding Site” value in series [6] is reported as “Site 1”.
